From paper PMC7413254 (Nature Communications, 2020)
Where two headings read alike, the source gives them in different places.

Key:
Assay in all cases: cell-based
Conditions in all cases: mean ± SEM, n = 5, SEM
PfCRT^3D7 = PfCRT^3D7 (Plasmodium falciparum, UniProt Q8IBZ9)
Method: (§1) The characterisation of [^3H]VF-6 transport via 23 different field and laboratory-derived isoforms of PfCRT was undertaken with oocytes two days post-cRNA-injection (Figs. 3a–j, 4; Supplementary Fig. 2). The oocytes were injected with 25 nL of ND96 buffer (pH 5.5) supplemented with [^3H]VF-6 and unlabelled VF-6 to achieve estimated intracellular concentrations of 1.4 and 200 μM, respectively. Ten oocytes that had resealed at the injection site were transferred to a 5 mL polystyrene round bottom tube (In Vitro Technologies) and washed with 3.5 mL of ND96 buffer before being transferred to separate wells of a white 96-well plate (PerkinElmer). This treatment served to establish the amount of radioactivity within the oocytes immediately prior to the commencement of the transport assay. Another 10 resealed oocytes were transferred to a 5 mL tube and washed with 3.5 mL of ND96 buffer. […] The assay was terminated by removing the reaction buffer with a pipette and washing the oocytes twice with 3.5 mL of ice-cold ND96 buffer. Each oocyte was transferred to a separate well of a white 96-well plate. The oocytes were lysed by the addition of 20 μL of 10% (w/v) SDS and overnight incubation at room temperature. The lysed oocyte was then combined with 150 μL of MicroScint-40 microscintillant (PerkinElmer), the plate covered with a TopSeal-A (PerkinElmer), and the radioactivity measured with a MicroBeta^2 microplate liquid scintillation analyser (PerkinElmer). VF-6 transport was calculated by subtracting the amount of radioactivity (measured in counts per minute) present within the oocytes at the end of the incubation from that measured in the oocytes sampled immediately before the commencement of the assay. The pH-dependence of transport (Fig. 3c) was determined by injecting the oocytes with [^3H]VF-6 suspended in 25 nL ND96 buffer adjusted to pH 5.0, 5.5, 6.0 or 7.0, which corresponded to the injection of 2.5–250 fmol of H^+. The dependence of [^3H]VF-6 transport on Na^+ or Cl^− was examined by injecting the oocytes with [^3H]VF-6 suspended in the control ND96 buffer (pH 5.5) or a version of this buffer that lacked either Na^+ or Cl^− (Supplementary Fig. 2). […] The dependence of peptide transport on Ca^2+ was determined by injecting the oocytes with [^3H]VF-6 suspended in ND96 buffers that contained different concentrations of Ca^2+ (0–5 mM; Supplementary Fig. 2). […] The dependence of PfCRT-mediated transport on the membrane potential was examined by using (1) Na^+ ionophore III in conjunction with the Na^+ gradients listed in Supplementary Data 7 and (2) Cl^− ionophore III in conjunction with the Cl^− gradients listed in Supplementary Data 7 to clamp the membrane potential of the oocyte from −80 to +80 mV. […] The kinetic parameters for VF-6 transport via different isoforms of PfCRT (Figs. 3e and 4a) were determined in SigmaPlot Windows Version 11.0 by a least-squares fit of the Michaelis–Menten equation to the data.
(§2) A subset of assays measured the ability of solutes known to interact with PfCRT to either cis-inhibit, trans-inhibit or trans-stimulate [^3H]VF-6 transport. These experiments involved adding these solutes to either the cis- or trans-side of the membrane relative to [^3H]VF-6. […] At least five independent experiments were performed (on different days and using oocytes from different frogs), and within each experiment measurements were made from ten oocytes per treatment.

PfCRT^Ecu1110 = PfCRT^Ecu1110 (Plasmodium falciparum, UniProt Q9N623, A220S/I356L/K76T/N326D)
Method: as §1, §2

PfCRT^Dd2 = PfCRT^Dd2 (Plasmodium falciparum, UniProt Q9N623, A220S/I356T/K76T/M74I/N326S/N75E/Q271E/R371I)
Method: as §1, §2

PfCRT^3D7, sequence (Q8IBZ9 59-398): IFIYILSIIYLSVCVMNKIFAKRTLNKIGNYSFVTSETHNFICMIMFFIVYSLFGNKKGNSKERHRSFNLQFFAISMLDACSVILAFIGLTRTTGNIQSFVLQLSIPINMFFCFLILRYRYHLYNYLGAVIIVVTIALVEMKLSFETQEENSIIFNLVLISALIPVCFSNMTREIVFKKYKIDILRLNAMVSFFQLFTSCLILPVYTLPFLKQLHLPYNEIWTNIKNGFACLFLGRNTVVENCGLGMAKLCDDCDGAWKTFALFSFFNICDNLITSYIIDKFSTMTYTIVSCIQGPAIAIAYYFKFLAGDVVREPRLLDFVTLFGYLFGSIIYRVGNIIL
PfCRT^Ecu1110, sequence (Q9N623 whole entry A220S/I356L/K76T/N326D): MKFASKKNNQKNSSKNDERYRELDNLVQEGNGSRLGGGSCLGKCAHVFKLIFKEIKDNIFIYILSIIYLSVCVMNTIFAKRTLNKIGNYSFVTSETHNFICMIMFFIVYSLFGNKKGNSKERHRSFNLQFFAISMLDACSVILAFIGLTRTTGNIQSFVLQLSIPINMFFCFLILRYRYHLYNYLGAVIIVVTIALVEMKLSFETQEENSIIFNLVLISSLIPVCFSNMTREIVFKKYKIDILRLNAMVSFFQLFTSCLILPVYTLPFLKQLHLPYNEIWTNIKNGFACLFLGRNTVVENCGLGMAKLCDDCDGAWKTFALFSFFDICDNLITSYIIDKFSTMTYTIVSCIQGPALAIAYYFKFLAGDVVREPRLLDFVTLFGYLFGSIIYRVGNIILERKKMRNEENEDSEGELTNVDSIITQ
PfCRT^Dd2, sequence (Q9N623 whole entry A220S/I356T/K76T/M74I/N326S/N75E/Q271E/R371I): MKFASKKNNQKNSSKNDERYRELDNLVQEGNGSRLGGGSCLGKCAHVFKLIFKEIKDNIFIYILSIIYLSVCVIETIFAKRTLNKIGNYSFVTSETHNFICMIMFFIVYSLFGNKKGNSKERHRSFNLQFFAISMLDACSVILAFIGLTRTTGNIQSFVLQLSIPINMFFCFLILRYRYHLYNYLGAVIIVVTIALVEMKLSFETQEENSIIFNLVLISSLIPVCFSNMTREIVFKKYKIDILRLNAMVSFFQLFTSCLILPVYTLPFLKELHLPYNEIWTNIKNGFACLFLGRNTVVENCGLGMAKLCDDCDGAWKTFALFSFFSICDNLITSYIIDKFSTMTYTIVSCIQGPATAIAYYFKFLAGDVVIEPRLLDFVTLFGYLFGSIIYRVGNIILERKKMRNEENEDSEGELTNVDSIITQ

`CN(C)CCC(c1ccc(Cl)cc1)c1ccccn1` (stereo not drawn) [CP, chlorpheniramine, reference compound] showed an IC50 (PfCRT^3D7; drug on opposite side to [3H]VF-6, read-out: Trans-inhibition IC50 of [3H]VF-6 transport, PfCRT3D7) of 12 ± 0.7 µM, an IC50 (PfCRT^3D7; drug on same side as [3H]VF-6, read-out: Cis-inhibition IC50 of [3H]VF-6 transport, PfCRT3D7) of 9.8 ± 0.5 µM and an IC50 (PfCRT^Ecu1110; Cis-inhibition IC50 of [3H]VF-6 transport, PfCRTEcu1110, drug on same side as [3H]VF-6) of 6.2 ± 0.3 µM. For the same compound, the IC50 (PfCRT^Ecu1110; Trans-inhibition IC50 of [3H]VF-6 transport, PfCRTEcu1110, drug on opposite side to [3H]VF-6) was 7.2 ± 0.2 µM, the IC50 (PfCRT^Dd2; Cis-inhibition IC50 of [3H]VF-6 transport, PfCRTDd2, drug on same side as [3H]VF-6) was 5 ± 1.1 µM and the IC50 (PfCRT^Dd2; Trans-inhibition IC50 of [3H]VF-6 transport, PfCRTDd2, drug on opposite side to [3H]VF-6) was 8.8 ± 0.3 µM.
